The numbers were not newly measured in patent US20050234025A1, “Compositions comprising one or more policosanols and/or policosanoic acids combined with sterol and/or steroid based ascorbic acid derivatives, and uses thereof” (FORBES MEDI-TECH INC., priority 2004, published 2005), which cites them from elsewhere.

The data set has as its system mice. The settings on record: Ben-David et al.

SMILES strings stand for the structures.

In the case of `C[C@]12CC[C@H](O)CC1=CC[C@@H]1[C@@H]2CC[C@]2(C)C(=O)CC[C@@H]12` [DHEA, dehydroepiandrostrone], the “effect on cholesterol (anti-hypercholesterolemic effect)” value is on record as “anti-hypercholesterolemic effect”.
